≈ marks a conversion by molar mass, not a printed value. Where two headings read alike, the source gives them in different places. *1 amine or outer side, *2 acyl side, *3 side chain or, on linkers, in order; H or OH if unused. Where a SMILES comes first, the peptide text is derived from it. [ ]: non-standard residue; d: D form. The star is where a group is joined. X4 = C[N+](C)(C)CCNC(=O)CCOCCOCCOCCOCCn1nnc2c1CCCCCC2OCC(=O)*; Dolaproine = CO[C@@H]([C@@H]1CCCN1)[C@@H](C)C(=O)O; Dil = CC[C@H](C)[C@H](NC)[C@@H](CC(=O)O)OC; PABC = O=C(OCc1ccc(N[*:1])cc1)[*:2]; DBCO = C1#Cc2ccccc2N(*)Cc2ccccc21; X1 = C[C@@H](N*)[C@@H](O)c1ccccc1; Cit = NC(=O)NCCC[C@H](N)C(=O)O; PEG4 = NCCOCCOCCOCCOCCC(=O)O; Suc = O=C(CCC(=O)[*:2])[*:1]; NMeV = CN[C@H](C(=O)O)C(C)C
Assays:
[1] = biological target: Human liver Cathepsin B (Homo sapiens, UniProt P07858); experiment: Cathepsin B cleavage assay of linker-payloads
[2] = pH stability in buffers, determined by LC-MS; assay type: physicochemical
Experimental: pH stability was assessed as follows. 0.1 mg of sample was dissolved into 0.2-0.3 mL of DMSO, and the resulting solution was added dropwise into different pH buffers (1 mL) while maintain clear solutions during testing time period. The samples were collected from several time points (e.g., over 72 hours), and pH stability was determined by LC-MS. pH buffer was prepared as follows: pH 8.0 sodium borate buffer: Add 9.534 g Sodium borate decahydrate, 1.461 g Sodium chloride, and 0.393 g DTPA to 900 mL distilled water, make sure all powers dissolve completely, then make final volume to 1 L by adding water. pH 7.4 sodium borate buffer: Add […], 9.534 g Sodium borate decahydrate, 1.461 g Sodium chloride, and 0.393 g DTPA to 900 mL distilled water, make sure all powers dissolve completely, then make final volume to 1 L by adding water. pH 5.0 succinate acid buffer: Add 10 mM succinate acid to 150 mL distilled water, and then change the pH to pH5.0 by adding 0.5M NaOH, then make final volume to 250 mL by adding water. pH 7.4 PBS buffer: commercially available. Stability was assessed at 72 hours by LCMS.

[3] = Solubility test in water, LCMS against standard curve
[4] = pH7.4 and 8 buffer, RT, Table 3-1
[5] = Solubility (mg/mL), in water, Table 3-1
[6] = pH7.4 or 8 buffer, room temperature, Table 3
[7] = Solubility (mg/mL), in water, Table 3

| SMILES | CapB cleavage rate (%) at 4 hrs ([1]; Table 1D) [%] | pH Stability [2, 4] | solubility [3, 5] [µg/mL] | CapB cleavage rate (%) at 4 hrs ([1]; Table 1C) [%] | pH Stability [2, 6] | solubility [3, 7] [µg/mL] | solubility [3] [µg/mL] |
| --- | --- | --- | --- | --- | --- | --- | --- |
| CC[C@H](C)[C@@H]([C@@H](CC(=O)N1CCC[C@H]1[C@H](OC)[C@@H](C)C(=O)N[C@H](C)[C@@H](O)c1ccccc1)OC)N(C)C(=O)[C@@H](NC(=O)[C@H](C(C)C)N(C)C(=O)OCc1ccc(NC(=O)[C@H](CCCNC(N)=O)NC(=O)[C@@H](NC(=O)[C@@H](CCCCNC(=O)COC2CCCCCc3c2nnn3CCOCCOCCOCCOCCOCCP(=O)(O)O)NC(=O)CCOCCOCCOCCOCCNC(=O)CCC(=O)N2Cc3ccccc3C#Cc3ccccc32)C(C)C)cc1)C(C)C (some centres unmarked) | 50 | Y (stable in pH7.4 and 8 buffer at RT for more than 3 days) | 250 (≈ 108 µM) | – | – | – | – |
| CCCC1O[C@@H]2C[C@H]3[C@@H]4C[C@H](F)C5=CC(=O)C=C[C@]5(C)[C@@]4(F)[C@@H](O)C[C@]3(C)[C@]2(C(=O)CNC(=O)OCc2ccc(NC(=O)[C@H](CCCNC(N)=O)NC(=O)[C@@H](NC(=O)[C@@H](CCCCNC(=O)COC3CCCCCc4c3nnn4CCOCCOCCOCCOCCC(=O)NCCS(=O)(=O)O)NC(=O)CCOCCOCCOCCOCCNC(=O)CCC(=O)N3Cc4ccccc4C#Cc4ccccc43)C(C)C)cc2)O1 (some centres unmarked) [1e] | 79.6 | Y (stable in pH7.4 and 8 buffer at RT for more than 3 days) | > 10000 | 79.6 | Y (stable in pH7.4 or 8 buffer at room temperature for more than 3 days) | > 10000 | – |
| CCCC1O[C@@H]2C[C@H]3[C@@H]4C[C@H](F)C5=CC(=O)C=C[C@]5(C)[C@@]4(F)[C@@H](O)C[C@]3(C)[C@]2(C(=O)CNC(=O)OCc2ccc(NC(=O)[C@H](CCCNC(N)=O)NC(=O)[C@@H](NC(=O)[C@@H](CCCCNC(=O)COC3CCCCCc4c3nnn4CCN(CC(=O)NCCS(=O)(=O)O)CC(=O)NCCS(=O)(=O)O)NC(=O)CCOCCOCCOCCOCCNC(=O)CCC(=O)N3Cc4ccccc4C#Cc4ccccc43)C(C)C)cc2)O1 (some centres unmarked) [1f] | 63.0 | – | – | 63.0 | – | – | – |
| CCCC1O[C@@H]2C[C@H]3[C@@H]4C[C@H](F)C5=CC(=O)C=C[C@]5(C)[C@@]4(F)[C@@H](O)C[C@]3(C)[C@]2(C(=O)COc2ccc(NC(=O)[C@H](C)NC(=O)[C@@H](NC(=O)[C@@H](CCCCNC(=O)COC3CCCCCc4c3nnn4CCOCCOCCOCCOCCC(=O)NCCS(=O)(=O)O)NC(=O)CCOCCOCCOCCOCCNC(=O)CCC(=O)N3Cc4ccccc4C#Cc4ccccc43)C(C)C)cc2)O1 (some centres unmarked) [1j] | 30.8 | Y (stable in pH7.4 and 8 buffer at RT for more than 3 days) | > 10000 | 30.8 | Y (stable in pH7.4 or 8 buffer at room temperature for more than 3 days) | > 10000 | – |
| CCCC1O[C@@H]2C[C@H]3[C@@H]4C[C@H](F)C5=CC(=O)C=C[C@]5(C)[C@@]4(F)[C@@H](O)C[C@]3(C)[C@]2(C(=O)COc2ccc(NC(=O)[C@H](CCCNC(N)=O)NC(=O)[C@@H](NC(=O)[C@@H](CCCCNC(=O)COC3CCCCCc4c3nnn4CCOCCOCCOCCOCCC(=O)NCCS(=O)(=O)O)NC(=O)CCOCCOCCOCCOCCNC(=O)CCC(=O)N3Cc4ccccc4C#Cc4ccccc43)C(C)C)cc2)O1 (some centres unmarked) [1k] | 31.0 | Y (stable in pH7.4 and 8 buffer at RT for more than 3 days) | > 1000 | 31.0 | Y (stable in pH7.4 or 8 buffer at room temperature for more than 3 days) | > 1000 | – |
| CC(C)[C@H](NC(=O)[C@@H](CCCCNC(=O)COC1CCCCCc2c1nnn2CCOCCOCCOCCOCCC(=O)NCCS(=O)(=O)O)NC(=O)CCOCCOCCOCCOCCNC(=O)CCC(=O)N1Cc2ccccc2C#Cc2ccccc21)C(=O)N[C@@H](C)C(=O)Nc1ccc2c(c1)[C@@]1(C)CCC[C@](C)(C(=O)NC(=O)[C@@]3(C)CCC[C@]4(C)c5cc(O)ccc5CC[C@@H]34)[C@@H]1CC2 (some centres unmarked) [1m] | 44.2 | – | – | 44.2 | – | – | – |
| CC(C)[C@H](NC(=O)[C@@H](CCCCNC(=O)COC1CCCCCc2c1nnn2CCOCCOCCOCCOCCC(=O)NCCS(=O)(=O)O)NC(=O)CCOCCOCCOCCOCCNC(=O)CCC(=O)N1Cc2ccccc2C#Cc2ccccc21)C(=O)N[C@@H](CCCNC(N)=O)C(=O)Nc1ccc(COC(=O)N[C@@H](CO)C(=O)Nc2ccc3c(c2)[C@@]2(C)CCC[C@](C)(C(=O)NC(=O)[C@@]4(C)CCC[C@]5(C)c6cc(O)ccc6CC[C@@H]45)[C@@H]2CC3)cc1 (some centres unmarked) [1q] | 30.4 | Y (stable in pH7.4 and 8 buffer at RT for more than 3 days) | – | – | – | – | 170 (≈ 75.7 µM) |
| CCCC1O[C@@H]2C[C@H]3[C@@H]4C[C@H](F)C5=CC(=O)C=C[C@]5(C)[C@@]4(F)[C@@H](O)C[C@]3(C)[C@]2(C(=O)CNC(=O)OCc2ccc(NC(=O)[C@H](CCCNC(N)=O)NC(=O)[C@@H](NC(=O)CCOCCOCCOCCOCCNC(=O)CCC(=O)N3Cc4ccccc4C#Cc4ccccc43)C(C)C)cc2)O1 (some centres unmarked) [10a] | 18.6 | Y (stable in pH7.4 and 8 buffer at RT for more than 3 days) | 20 (≈ 14.2 µM) | – | – | – | – |
| CC(C)[C@H](NC(=O)CCOCCOCCOCCOCCNC(=O)CCC(=O)N1Cc2ccccc2C#Cc2ccccc21)C(=O)N[C@@H](C)C(=O)Nc1ccc2c(c1)[C@@]1(C)CCC[C@](C)(C(=O)NC(=O)[C@@]3(C)CCC[C@]4(C)c5cc(O)ccc5CC[C@@H]34)[C@@H]1CC2 [10b, 1-(4-{2-Azatricyclo[10.4.0.0^4,9]hexadeca-1(12),4(9),5,7,13,15-hexaen-10-yn-2-yl}-4-oxobutanamido)-N-[(1 S)-1-{[(1 S)-1-{[(4bS,8S,8aR)-8-{[(1 S,4aS,10aR)-6-hydroxy-1,4a-dimethyl-1,2,3,4,4a,9,10,10a-octahydrophenanthrene-1-carbonyl]carbamoyl}-4b,8-dimethyl-4b,5,6,7,8,8a,9,10-octahydrophenanthren-3-yl]carbamoyl}ethyl]carbamoyl}-2-methylpropyl]-3,6,9,12-tetraoxapentadecan-15-amide] | – | – | – | – | – | – | < 100 |
| CCCC1O[C@@H]2C[C@H]3[C@@H]4C[C@H](F)C5=CC(=O)C=C[C@]5(C)[C@@]4(F)[C@@H](O)C[C@]3(C)[C@]2(C(=O)COc2ccc(NC(=O)OCc3ccc(NC(=O)[C@H](CCCNC(N)=O)NC(=O)[C@@H](NC(=O)[C@@H](CCCCNC(=O)COC4CCCCCc5c4nnn5CCOCCOCCOCCOCCC(=O)NCC[N+](C)(C)C)NC(=O)CCOCCOCCOCCOCCNC(=O)OC[C@@H]4[C@@H]5CCC#CCC[C@@H]54)C(C)C)cc3)cc2)O1 (some centres unmarked) [IIIe] | – | Y (stable in pH7.4 and 8 buffer at RT for more than 3 days) | > 10000 | – | – | – | – |
| CC[C@H](C)[C@@H]([C@@H](CC(=O)N1CCC[C@H]1[C@H](OC)[C@@H](C)C(=O)N[C@H](C)[C@@H](O)c1ccccc1)OC)N(C)C(=O)[C@@H](NC(=O)[C@H](C(C)C)N(C)C(=O)OCc1ccc(NC(=O)[C@H](CCCNC(N)=O)NC(=O)[C@@H](NC(=O)[C@@H](CCCCNC(=O)COC2CCCCCc3c2nnn3CCOCCOCCOCCOCCC(=O)NCC[N+](C)(C)C)NC(=O)CCOCCOCCOCCOCCNC(=O)CCC(=O)N2Cc3ccccc3C#Cc3ccccc32)C(C)C)cc1)C(C)C (some centres unmarked) [Ib] ({DBCO-Suc-PEG4}-[dK](X4)V[Cit][PABC][NMeV]V[Dil][Dolaproine]-X1) | 65 | – | – | – | – | – | – |

Reference: patent US20240408223A1 (REGENERON PHARMACEUTICALS, INC., priority 2017, published 2024)
